Measurements published in patent publication US20100197800A1, “Treatment and/or Prevention of Presbycusis by Modulation of Metabotropic Glutamate Receptor 7” (priority 2007, published 2010).
pEC50, pIC50: −log10 of the molar value. Like-named read-outs stand apart in the source and are kept apart here.

Key:
mGluR7 [1] = target: T1, mGluR7 (Homo sapiens, UniProt Q14831); parameters: host or cells: CHO cells, transfected; conditions: CHO cells coexpressing human mGluR7 with G15; cited from earlier work
T1 sequence (Q14831 35-915): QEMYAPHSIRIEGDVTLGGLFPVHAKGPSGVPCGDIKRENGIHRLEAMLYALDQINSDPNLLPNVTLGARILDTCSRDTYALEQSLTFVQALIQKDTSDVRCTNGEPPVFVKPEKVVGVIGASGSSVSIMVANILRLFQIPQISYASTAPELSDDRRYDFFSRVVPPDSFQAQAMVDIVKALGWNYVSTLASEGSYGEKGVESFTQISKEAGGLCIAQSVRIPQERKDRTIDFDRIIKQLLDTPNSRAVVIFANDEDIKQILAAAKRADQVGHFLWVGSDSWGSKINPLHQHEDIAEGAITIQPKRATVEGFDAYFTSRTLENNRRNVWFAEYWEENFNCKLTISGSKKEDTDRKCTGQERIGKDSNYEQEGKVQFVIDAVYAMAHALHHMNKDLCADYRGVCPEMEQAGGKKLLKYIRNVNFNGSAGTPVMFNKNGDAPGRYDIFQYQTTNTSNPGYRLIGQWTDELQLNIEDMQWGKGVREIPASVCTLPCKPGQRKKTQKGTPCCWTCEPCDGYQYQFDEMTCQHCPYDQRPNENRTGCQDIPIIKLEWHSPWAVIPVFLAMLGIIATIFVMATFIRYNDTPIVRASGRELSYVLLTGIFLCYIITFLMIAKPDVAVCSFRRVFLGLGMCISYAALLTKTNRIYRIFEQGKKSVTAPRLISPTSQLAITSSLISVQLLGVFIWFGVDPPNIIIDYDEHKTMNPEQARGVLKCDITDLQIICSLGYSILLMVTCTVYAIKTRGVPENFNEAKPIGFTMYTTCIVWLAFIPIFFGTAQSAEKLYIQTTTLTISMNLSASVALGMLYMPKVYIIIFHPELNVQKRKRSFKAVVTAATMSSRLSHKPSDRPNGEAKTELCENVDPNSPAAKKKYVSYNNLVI

rat mGluR7 [2] = target: T2, rat mGluR7 (Rattus norvegicus, UniProt P35400); conditions: cited from earlier work
T2 construct: host or cells: CHO cells, transfected
T2 sequence (P35400 35-915): as the sequence (Q14831 35-915) above, with N420H, S454T, A486S, D544N counted along it

rat mGluR7 [3] = target: T2, rat mGluR7; conditions: CHO cells expressing rat mGluR7; read-out: IC50, inhibition of L-AP4-induced inhibition of forskolin-stimulated cAMP accumulation; cited from earlier work
human mGluR7b = human mGluR7b (Homo sapiens, UniProt Q14831); conditions: agonist; cited from earlier work
Chain of human mGluR7b (Q14831 35-922 isoform Q14831-2 limits assumed): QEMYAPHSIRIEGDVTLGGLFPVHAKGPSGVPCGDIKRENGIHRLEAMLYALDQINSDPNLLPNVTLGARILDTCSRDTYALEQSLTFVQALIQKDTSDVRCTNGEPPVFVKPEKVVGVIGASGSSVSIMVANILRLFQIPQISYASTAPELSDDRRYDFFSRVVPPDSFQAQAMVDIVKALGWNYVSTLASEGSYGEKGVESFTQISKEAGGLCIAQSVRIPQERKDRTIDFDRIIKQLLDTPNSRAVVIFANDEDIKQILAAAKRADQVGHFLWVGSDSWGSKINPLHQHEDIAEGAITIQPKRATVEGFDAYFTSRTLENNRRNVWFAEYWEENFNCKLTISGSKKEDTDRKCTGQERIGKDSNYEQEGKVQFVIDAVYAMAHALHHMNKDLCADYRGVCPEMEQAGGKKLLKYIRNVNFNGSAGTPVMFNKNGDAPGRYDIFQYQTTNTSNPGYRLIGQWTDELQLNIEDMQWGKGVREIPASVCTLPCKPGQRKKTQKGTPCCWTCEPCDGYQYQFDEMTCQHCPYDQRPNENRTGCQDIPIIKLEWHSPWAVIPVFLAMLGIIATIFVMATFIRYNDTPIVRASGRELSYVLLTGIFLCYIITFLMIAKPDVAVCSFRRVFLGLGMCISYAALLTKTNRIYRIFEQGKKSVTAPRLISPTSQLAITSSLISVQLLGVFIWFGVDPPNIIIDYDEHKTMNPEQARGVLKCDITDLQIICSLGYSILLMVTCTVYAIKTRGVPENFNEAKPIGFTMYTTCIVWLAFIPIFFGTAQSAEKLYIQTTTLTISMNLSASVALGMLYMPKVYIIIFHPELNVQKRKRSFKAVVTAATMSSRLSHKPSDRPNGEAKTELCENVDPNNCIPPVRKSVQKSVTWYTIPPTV

mGluR4a = mGluR4a (Homo sapiens, UniProt Q14833); conditions: agonist; cited from earlier work
Chain of mGluR4a (Q14833 33-912): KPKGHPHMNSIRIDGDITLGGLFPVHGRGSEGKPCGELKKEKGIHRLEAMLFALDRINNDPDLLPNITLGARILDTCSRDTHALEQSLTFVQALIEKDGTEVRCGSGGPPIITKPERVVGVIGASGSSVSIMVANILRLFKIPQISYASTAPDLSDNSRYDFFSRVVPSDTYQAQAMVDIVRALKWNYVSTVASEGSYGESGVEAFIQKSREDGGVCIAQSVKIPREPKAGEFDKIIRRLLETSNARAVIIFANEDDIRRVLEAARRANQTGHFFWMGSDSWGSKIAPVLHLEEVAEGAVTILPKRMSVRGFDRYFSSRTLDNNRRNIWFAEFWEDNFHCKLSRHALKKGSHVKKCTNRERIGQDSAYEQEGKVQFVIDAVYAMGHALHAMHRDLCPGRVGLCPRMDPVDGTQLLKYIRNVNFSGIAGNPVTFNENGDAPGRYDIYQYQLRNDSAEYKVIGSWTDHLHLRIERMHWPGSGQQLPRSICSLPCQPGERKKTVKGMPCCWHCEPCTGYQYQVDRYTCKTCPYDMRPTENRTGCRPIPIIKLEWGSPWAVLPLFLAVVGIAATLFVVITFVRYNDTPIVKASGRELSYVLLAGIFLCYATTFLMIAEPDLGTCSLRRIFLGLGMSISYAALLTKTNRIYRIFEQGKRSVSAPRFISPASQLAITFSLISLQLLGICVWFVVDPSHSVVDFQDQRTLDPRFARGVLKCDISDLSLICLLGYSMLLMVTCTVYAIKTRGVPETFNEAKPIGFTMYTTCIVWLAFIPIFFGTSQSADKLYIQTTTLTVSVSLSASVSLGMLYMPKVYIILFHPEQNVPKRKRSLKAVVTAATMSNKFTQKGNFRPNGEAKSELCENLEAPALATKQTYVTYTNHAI

mGluR7 [4] = target: T3, mGluR7 (Mus musculus, UniProt Q68ED2); conditions: cited from earlier work
T3 construct: host or cells: whole animals (in vivo), endogenous receptor
T3 sequence (Q68ED2 35-915): as the sequence (Q14831 35-915) above, with S454T, A486P, D544N counted along it

mGluR7 [5] = target: T1, mGluR7; conditions: through an allosteric site; cited from earlier work
presbycusis = assay: treatment of patients with presbycusis, hearing threshold; type: in vivo, human; conditions: for hearing threshold left ear / hearing threshold right ear: after 14 days
Procedure: A person presents with symptoms of presbycusis, including moderate loss of higher frequency (above 2000 Hz) hearing (50 decibel threshold) in both ears. The person is administered two drops per ear twice daily of a topical otic formulation comprising 10 ug/ml of AMN082 in a phosphate-buffered saline and further comprising 0.25% the carboxyvinyl water swellable gelling agent, Carbopol 934P; i.e., about 1 ug nGluR7 agonist per ear per dosing. After 14 days, the patient is tested by an audiologist. The threshold is lowered to 35 decibels right ear and 40 decibels left ear.
A person presents with symptoms of presbycusis, including loss of moderately high frequency (above 1000 Hz) hearing (40 decibel threshold right ear and 35 decibel threshold left ear). The person is administered an oral formulation 4 times per day comprising 2 ug per dose of AMN082. The extended release capsule comprises a matrix of 10% by weight hydroxypropyl methylcellulose (e.g., Methocel®; Dow Chemical Company, U.S.A), and 50% by weight of a cornstarch filler. After 14 days, the threshold is lowered to 35 decibels right ear and 25 decibels left ear.
A person presents with symptoms of presbycusis, including loss of hearing in the 500 to above 2000 Hz range. The person is implanted with an Alset® osmotic pump adapted for cochlear delivery; see e.g., Richardson, R. T., Noushi, F., O'Leary, S. Inner ear therapy for neural preservation. AUDIOLOGY AND NEURO-OTOLOGY 2006; 11(6): 343-356. The pump is supplied with an aqueous sterile solution comprising AMN082. The pump delivers a dose of 10 ug/hour of the mGluR7 modulator. After 10 days, hearing is improved in both ears.

mGluR7 [6] = target: T1, mGluR7; conditions: antagonist; read-out: 1050 values on inhibition of glutamate stimulated inositol phosphate accumulation, mGluR7; cited from earlier work
mGluR8 [7] = target: T4, mGluR8 (Homo sapiens, UniProt O00222); conditions: antagonist; read-out: 1050 values on inhibition of glutamate stimulated inositol phosphate accumulation, mGluR8; cited from earlier work
T4 sequence (O00222 34-908, species assumed): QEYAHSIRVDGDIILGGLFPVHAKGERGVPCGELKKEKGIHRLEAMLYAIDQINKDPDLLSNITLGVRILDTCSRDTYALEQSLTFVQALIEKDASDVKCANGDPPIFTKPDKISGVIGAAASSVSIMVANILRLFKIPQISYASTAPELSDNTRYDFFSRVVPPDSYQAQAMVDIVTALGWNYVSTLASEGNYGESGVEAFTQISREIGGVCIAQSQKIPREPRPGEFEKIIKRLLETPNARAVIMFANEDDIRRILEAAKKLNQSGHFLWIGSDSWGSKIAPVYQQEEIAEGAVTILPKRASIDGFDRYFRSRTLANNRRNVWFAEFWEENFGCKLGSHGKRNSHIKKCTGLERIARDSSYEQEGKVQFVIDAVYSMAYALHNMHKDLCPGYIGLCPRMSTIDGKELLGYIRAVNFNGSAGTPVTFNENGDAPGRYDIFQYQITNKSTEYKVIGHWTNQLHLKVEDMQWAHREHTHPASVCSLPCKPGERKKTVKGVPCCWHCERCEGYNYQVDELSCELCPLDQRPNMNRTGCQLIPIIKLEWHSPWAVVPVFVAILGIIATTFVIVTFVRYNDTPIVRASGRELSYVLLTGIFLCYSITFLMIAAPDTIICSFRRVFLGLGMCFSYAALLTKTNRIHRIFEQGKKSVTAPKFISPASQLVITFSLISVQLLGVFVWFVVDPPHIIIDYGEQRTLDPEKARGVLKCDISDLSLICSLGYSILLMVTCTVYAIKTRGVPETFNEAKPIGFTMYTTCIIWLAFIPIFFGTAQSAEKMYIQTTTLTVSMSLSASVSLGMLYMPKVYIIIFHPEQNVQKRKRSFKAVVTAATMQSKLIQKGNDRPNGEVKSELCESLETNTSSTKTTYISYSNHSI

mGluR6 = mGluR6 (Homo sapiens, UniProt O15303); conditions: antagonist; read-out: 1050 values on inhibition of glutamate stimulated inositol phosphate accumulation, mGluR6; cited from earlier work
mGluR7 [8] = target: T1, mGluR7; conditions: higher for mGluR7; cited from earlier work
mGluR8 [9] = target: T4, mGluR8; conditions: concentrations of at least 1 μM; cited from earlier work
mGluR4 = mGluR4 (Homo sapiens, UniProt Q14833); conditions: concentrations of at least 1 μM; cited from earlier work
Chain of mGluR4 (Q14833 33-912): as the sequence (Q14833 33-912) above

mGluR2 = mGluR2 (Homo sapiens, UniProt Q14416); conditions: concentrations of at least 1 μM; cited from earlier work
mGluR7 [10] = target: T1, mGluR7; parameters: host or cells: CHO cells (printed only for the inverse-agonism experiment, A12); conditions: CHO cells expressing mGluR7; cited from earlier work
mGluR5 = mGluR5 (Homo sapiens, UniProt P41594); conditions: concentrations of at least 1 μM; cited from earlier work
mGluR7 [11] = target: T1, mGluR7; conditions: cited from earlier work
mGluR1 = mGluR1 (Homo sapiens, UniProt Q13255); conditions: concentrations of at least 1 μM; cited from earlier work
mGluR3 = mGluR3 (Homo sapiens, UniProt Q14832); conditions: concentrations of at least 1 μM; cited from earlier work
Chain of mGluR3 (Q14832 23-879): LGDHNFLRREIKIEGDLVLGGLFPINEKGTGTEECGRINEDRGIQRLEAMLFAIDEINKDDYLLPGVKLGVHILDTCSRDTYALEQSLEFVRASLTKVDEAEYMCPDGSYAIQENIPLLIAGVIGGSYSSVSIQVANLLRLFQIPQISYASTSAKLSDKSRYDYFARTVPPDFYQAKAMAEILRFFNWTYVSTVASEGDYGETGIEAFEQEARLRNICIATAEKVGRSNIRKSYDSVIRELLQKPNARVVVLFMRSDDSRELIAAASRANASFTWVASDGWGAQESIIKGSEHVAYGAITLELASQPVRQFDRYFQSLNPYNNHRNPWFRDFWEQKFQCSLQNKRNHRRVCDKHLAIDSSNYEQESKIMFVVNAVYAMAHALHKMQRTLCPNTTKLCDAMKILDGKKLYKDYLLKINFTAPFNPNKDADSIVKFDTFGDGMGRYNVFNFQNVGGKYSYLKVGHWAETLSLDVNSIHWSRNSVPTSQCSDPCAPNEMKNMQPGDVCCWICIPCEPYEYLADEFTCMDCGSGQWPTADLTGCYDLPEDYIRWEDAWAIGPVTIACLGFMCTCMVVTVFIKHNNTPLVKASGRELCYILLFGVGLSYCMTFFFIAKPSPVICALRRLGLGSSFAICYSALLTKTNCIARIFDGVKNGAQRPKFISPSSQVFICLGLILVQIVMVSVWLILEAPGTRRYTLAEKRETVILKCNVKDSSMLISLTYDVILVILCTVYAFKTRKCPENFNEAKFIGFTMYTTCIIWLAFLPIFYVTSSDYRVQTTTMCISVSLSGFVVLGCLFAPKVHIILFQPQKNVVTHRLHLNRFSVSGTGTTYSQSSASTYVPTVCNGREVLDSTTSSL

mGluR7 [12] = target: T1, mGluR7; conditions: cited from earlier work; remark: listed apart in the source
[13] = Example 3: person, topical otic drops twice daily, baseline 50 decibel, above 2000 Hz

Which “inhibition of the L-AP4-induced cAMP response” value (mGluR7 [1]) does the source give for “5-Methyl-3,6-diphenylisoxazolo[4,5-e]pyridin-4(5H)-one [MDIP]” here?
Its value is “inhibited”.

What about the pIC50 (rat mGluR7 [2]; CHO cells coexpressing rat mGluR7 with G15, read-out: IC50, inhibition of L-AP4-induced intracellular Ca2+ mobilization) of the same compound?
The pIC50 was 7.70.

What about the pIC50 (rat mGluR7 [3]) of the same compound?
Its pIC50 is 7.00.

With `N[C@@H](C(=O)O)c1ccc(P(=O)(O)O)cc1` (racemic) [(+)-PPG, (R,S)-phosphonophenylglycine] as the compound, how does the pEC50 (human mGluR7b) read?
Its pEC50 is 4.32.

And the pEC50 (mGluR4a)?
Its pEC50 is 5.49.

With `Cl.Cl.c1ccc(C(NCCNC(c2ccccc2)c2ccccc2)c2ccccc2)cc1` [AMN082, N,N′-dibenzhydryl-ethane-1,2-diamine dihydrochloride] as the compound, how does the oral activity (mGluR7 [4]; in vivo, po) read?
Its oral activity is “orally active”.

And the blood-brain barrier penetration (mGluR7 [4]; in vivo)?
The blood-brain barrier penetration was “penetrate the blood-brain barrier”.

And the “increase in stress hormone levels in mGluR7 knockout animals” value (mGluR7 [4]; mGluR7 knockout animals)?
Its value is “absent”.

And the stress hormone levels (mGluR7 [4]; wild-type animals)?
The stress hormone levels was “robust increase”.

And the “activation of mGluR7” value (mGluR7 [5])?
Its value is “fully activating”.

What about the “hearing threshold left ear” value (presbycusis; [13]) of the same compound?
The value was 40 decibels.

What about the “hearing threshold right ear” value (presbycusis; [13]) of the same compound?
Its value is 35 decibels.

What about the “hearing threshold left ear” value (presbycusis; Example 4: person, oral 2 ug 4 times per day, baseline 35 decibel, above 1000 Hz) of the same compound?
The value was 25 decibels.

And the “hearing threshold right ear” value (presbycusis; Example 4: person, oral 2 ug 4 times per day, baseline 40 decibel, above 1000 Hz)?
Its value is 35 decibels.

What about the “hearing in both ears” value (presbycusis; Example 5: person, cochlear osmotic pump 10 ug/hour, after 10 days) of the same compound?
The value was “improved”.

With `N[C@H](C(=O)O)C1[C@H](C(=O)O)[C@H]1C(=O)O` (stereo partly drawn) [DCG-IV, (2S,1'S,2'S)-2-(dicarboxycyclopropyl)glycine] as the compound, how does the pIC50 (mGluR7 [6]) read?
Its pIC50 is 4.40.

What about the pIC50 (mGluR8 [7]) of the same compound?
The pIC50 was 4.49.

And the pIC50 (mGluR6)?
Its pIC50 is 4.40.

With `N[C@@H](CCP(=O)(O)O)C(=O)O` [L-AP4, L-(+)-2-amino-4-phosphonobutyric acid] as the compound, how does the “concentrations activating mGluR7 relative to those activating mGluRs 4, 6, and 8” value (mGluR7 [8]) read?
The value was 2-3 orders of magnitude.

With `COc1ccc(-c2cc3onc(-c4ccncc4)c3c(=O)n2C)cc1` [MMPIP, 6-(4-methoxyphenyl)-5-methyl-3-pyridin-4-ylisoxazolo[4,5-c]pyridin-4(5H)-one] as the compound, how does the “inhibition of the L-AP4-induced cAMP response” value (mGluR7 [1]) read?
The value was “inhibited”.

And the “effect on mGluR8” value (mGluR8 [9])?
Its value is “no significant effect”.

And the “effect on mGluR4” value (mGluR4)?
Its value is “no significant effect”.

And the “effect on mGluR2” value (mGluR2)?
The value was “no significant effect”.

And the “forskolin-stimulated cAMP levels in the absence of agonists (inverse agonistic activity)” value (mGluR7 [10])?
Its value is “further increase”.

And the “effect on mGluR5” value (mGluR5)?
Its value is “no significant effect”.

What about the “displacement of [3H]LY341495 bound to mGluR7” value (mGluR7 [11]) of the same compound?
Its value is “did not displace”.

What about the “effect on mGluR1” value (mGluR1) of the same compound?
The value was “no significant effect”.

What about the “effect on mGluR3” value (mGluR3) of the same compound?
The value was “no significant effect”.

What about the “maximal response in agonist concentration-response curves in the presence of the compound” value (rat mGluR7 [2]) of the same compound?
The value was “reduced”.

And the reversibility of antagonism (rat mGluR7 [2])?
The reversibility of antagonism was “reversible”.

What about the “antagonism of AMN082-induced inhibition of cAMP accumulation” value (mGluR7 [12]) of the same compound?
Its value is “able to antagonize”.

And the pIC50 (rat mGluR7 [3])?
Its pIC50 is 6.66.
